A short description of this data set: Intrinsic active substance release in water (USP <1087> intrinsic dissolution). The conditions noted are these: demineralized water, 37° C.±0.5° C.; gradient of cumulative release up to 10% released. Format: physicochemical. As for the experimental part:
The intrinsic release of each of the two active substances is calculated from the gradient of the cumulative active substance release up to and including the time at which 10% of the […] have been released. It is given below as the release rate in mg·min^−1·cm^−2.

As for `COc1cccc([C@@]2(O)CCCC[C@@H]2CN(C)C)c1.Cl` (racemic) [Tramadol hydrochloride, (1RS,2RS)-2-[(dimethylamino)methyl]-1-(3-methoxyphenyl)cyclohexanol hydrochloride], the “Intrinsic release in water (release rate)” value is 21 mg · min^−1 · cm^−2.
`COc1cccc(C2(O)CCCCC2CN(C)C)c1.O=C1NS(=O)(=O)c2ccccc21` (centres unmarked) [Tramadol saccharinate, tramadol saccharinate]: the “Intrinsic release in water (release rate)” value is reported as 2 mg · min^−1 · cm^−2.

Source of the values: patent US6576260B2 (Gruenenthal GmbH, priority 1999, dated 2003).
